Reference: patent publication US10770169B2, “Method of providing a treatment to a subject based on a dynamic pathway map” (THE REGENTS OF THE UNIVERSITY OF CALIFORNIA, priority 2010, dated 2020)
Where two headings read alike, the source gives them in different places.

System: panel of 55 breast cancer cell lines
Experiment: Cell growth inhibition assay (Cell Titer Glo, 72 h, 9 doses; GI50, TGI, LC50)
Assay type: cell-based, human
Conditions: Homo sapiens, read-out: GI50 (converted)
[1] = CAMA-1, CAMA1 cell line, censored GI50 values
[2] = HCC1500, HCC1500 cell line, censored GI50 values
[3] = HCC1806, HCC1806 cell line, censored GI50 values
[4] = HCC1954, HCC1954 cell line, censored GI50 values

CC(=O)O[C@H]1C(=O)[C@@]2(C)[C@H]([C@H](OC(=O)c3ccccc3)[C@]3(O)C[C@H](OC(=O)[C@H](O)[C@@H](NC(=O)c4ccccc4)c4ccccc4)C(C)=C1C3(C)C)[C@]1(OC(C)=O)CO[C@@H]1C[C@@H]2O [Paclitaxel] was tested, and the GI50 (600MPE cell line, censored GI50 values) was 0.0661 µM, the GI50 (AU565, AU565 cell line, censored GI50 values) was 0.00813 µM and the GI50 (AU565, cell line AU565) was 0.00813 µM. For the same molecule, the GI50 (BT-474, BT474 cell line, censored GI50 values) was 0.0102 µM, the GI50 (BT-474, cell line BT474) was 0.0102 µM and the GI50 (BT-483, BT483 cell line, censored GI50 values) was 0.0347 µM. The GI50 (BT-483, cell line BT483) was 0.0347 µM, the GI50 [1] was 0.0112 µM and the GI50 (CAMA-1, cell line CAMA1) was 0.0112 µM. It also gave a GI50 (HCC38, cell line HCC38) of 0.00741 µM, a GI50 (HCC70, cell line HCC70) of 0.00813 µM and a GI50 (HCC202, cell line HCC202) of 0.00794 µM. For the same molecule, the GI50 (HCC1143, HCC1143 cell line, censored GI50 values) was 0.017 µM, the GI50 (HCC1143, cell line HCC1143) was 0.017 µM and the GI50 (HCC1187, HCC1187 cell line, censored GI50 values) was 0.00891 µM. The GI50 (HCC1187, cell line HCC1187) was 0.00891 µM, the GI50 (HCC1395, HCC1395 cell line, censored GI50 values) was 0.0158 µM and the GI50 (HCC1395, cell line HCC1395) was 0.0158 µM. The GI50 (HCC1419, HCC1419 cell line, censored GI50 values) was 0.692 µM, the GI50 (HCC1419, cell line HCC1419) was 0.692 µM and the GI50 (HCC1428, HCC1428 cell line, censored GI50 values) was 16.6 µM. It also gave a GI50 (HCC1428, cell line HCC1428) of 16.6 µM, a GI50 [2] of 0.00794 µM and a GI50 (HCC1500, cell line HCC1500) of 0.00794 µM. It also gave a GI50 [3] of 0.00871 µM, a GI50 (HCC1806, cell line HCC1806) of 0.00871 µM and a GI50 [4] of 0.00708 µM. The GI50 (HCC1954, cell line HCC1954) was 0.00708 µM, the GI50 (MCF7, cell line MCF7) was 0.0162 µM and the GI50 (MDA-MB-231, cell line MDAMB231) was 0.00525 µM. It also gave a GI50 (MDA-MB-361, cell line MDAMB361) of 0.0132 µM, a GI50 (MDA-MB-415, cell line MDAMB415) of 0.00525 µM and a GI50 (MDA-MB-436, cell line MDAMB436) of 0.0427 µM. The GI50 (MDA-MB-453, cell line MDAMB453) was 0.0102 µM, the GI50 (MDA-MB-468, cell line MDAMB468) was 0.00871 µM and the GI50 (SK-BR-3, cell line SKBR3) was 0.0112 µM. It also gave a GI50 (SUM52PE, cell line SUM52PE) of 0.0049 µM, a GI50 (SUM149PT, cell line SUM149PT) of 0.00933 µM and a GI50 (SUM185PE, cell line SUM185PE) of 0.024 µM. It also gave a GI50 (SUM-159-PT, cell line SUM159PT) of 0.0151 µM, a GI50 (UACC-812, cell line UACC812) of 0.00912 µM and a GI50 (UACC-893, cell line UACC893) of 0.0117 µM. The GI50 (ZR-75-1, cell line ZR751) was 0.0275 µM, the GI50 (ZR-75-30, cell line ZR7530) was 0.0219 µM and the GI50 (ZR-75B, cell line ZR75B) was 0.00794 µM. It also gave a GI50 (cell line 600MPE) of 0.0661 µM, a GI50 (cell line HCC2185) of 0.00724 µM and a GI50 (cell line HCC3153) of 0.02 µM. It also gave a GI50 (cell line LY2) of 0.0105 µM, a GI50 (cell line MDAMB134V) of 0.01 µM and a GI50 (cell line MDAMB175V) of 0.0195 µM. The GI50 (cell line SUM1315MO) was 0.00617 µM.
Molecule Nc1nc2[nH]cc(CCc3ccc(C(=O)N[C@@H](CCC(=O)O)C(=O)O)cc3)c2c(=O)[nH]1 [Pemetrexed] has a GI50 (AU565, cell line AU565) of 2950 µM, a GI50 (BT-474, cell line BT474) of 2950 µM and a GI50 (BT-483, cell line BT483) of 2950 µM. For the same molecule, the GI50 (BT-549, cell line BT549) was 2950 µM, the GI50 [1] was 1480 µM and the GI50 (CAMA-1, cell line CAMA1) was 1480 µM. The GI50 (HCC38, cell line HCC38) was 2950 µM, the GI50 (HCC70, cell line HCC70) was 2950 µM and the GI50 (HCC202, HCC202 cell line, censored GI50 values) was 0.0209 µM. It also gave a GI50 (HCC202, cell line HCC202) of 0.0209 µM, a GI50 (HCC1143, cell line HCC1143) of 2950 µM and a GI50 (HCC1187, cell line HCC1187) of 2950 µM. The GI50 (HCC1419, cell line HCC1419) was 2950 µM, the GI50 (HCC1428, cell line HCC1428) was 2950 µM and the GI50 [2] was 0.501 µM. The GI50 (HCC1500, cell line HCC1500) was 0.501 µM, the GI50 [3] was 1480 µM and the GI50 (HCC1806, cell line HCC1806) was 1480 µM. It also gave a GI50 (HCC1937, HCC1937 cell line, censored GI50 values) of 155 µM, a GI50 (HCC1937, cell line HCC1937) of 155 µM and a GI50 [4] of 0.214 µM. It also gave a GI50 (HCC1954, cell line HCC1954) of 0.214 µM, a GI50 (LY2 cell line, censored GI50 values) of 0.468 µM and a GI50 (MCF7, cell line MCF7) of 2950 µM. The GI50 (MDA-MB-157, cell line MDAMB157) was 2950 µM, the GI50 (MDA-MB-361, MDAMB361 cell line, censored GI50 values) was 0.49 µM and the GI50 (MDA-MB-361, cell line MDAMB361) was 0.49 µM. It also gave a GI50 (MDA-MB-436, cell line MDAMB436) of 2950 µM, a GI50 (MDA-MB-453, MDAMB453 cell line, censored GI50 values) of 33.9 µM and a GI50 (MDA-MB-453, cell line MDAMB453) of 33.9 µM. For the same molecule, the GI50 (MDA-MB-468, MDAMB468 cell line, censored GI50 values) was 1480 µM, the GI50 (MDA-MB-468, cell line MDAMB468) was 1480 µM and the GI50 (SK-BR-3, SKBR3 cell line, censored GI50 values) was 1480 µM. For the same molecule, the GI50 (SK-BR-3, cell line SKBR3) was 1480 µM, the GI50 (SUM52PE, cell line SUM52PE) was 2950 µM and the GI50 (SUM185PE, cell line SUM185PE) was 2950 µM. For the same molecule, the GI50 (T47D, cell line T47D) was 2950 µM, the GI50 (UACC-812, cell line UACC812) was 2950 µM and the GI50 (ZR-75-1, ZR751 cell line, censored GI50 values) was 204 µM. It also gave a GI50 (ZR-75-1, cell line ZR751) of 204 µM, a GI50 (cell line HCC2185) of 2950 µM and a GI50 (cell line HCC3153) of 2950 µM. The GI50 (cell line LY2) was 0.468 µM, the GI50 (cell line MDAMB134V) was 2950 µM and the GI50 (cell line SUM1315MO) was 2950 µM.
